Non-standard residues stand in square brackets, D forms with d. Primed or numbered codes have the meaning given here. No end group written: not given here. *: point of attachment. Myristoyl = CCCCCCCCCCCCCC(=O)*; PEG24′ = not defined here; Nle = CCCC[C@H](N)C(=O)O

In one experiment the test system is ApoB. The experiment can be described thus: Knockdown of endogenous serum ApoB in mice after co-injection of masked melittin delivery peptide and ApoB siRNA-cholesterol conjugate. The class given is in vivo. As to the method: (§1) RNAi polynucleotide conjugates and masked melittin peptides were synthesized as described above. Six to eight week old mice (strain C57BL/6 or ICR, ˜18-20 g each) were obtained from Harlan Sprague Dawley (Indianapolis Ind.). Mice were housed at least 2 days prior to injection. Feeding was performed ad libitum with Harlan Teklad Rodent Diet (Harlan, Madison Wis.). Mice were injected with 0.2 mL solution of delivery peptide and 0.2 mL siRNA conjugates into the tail vein. For simultaneous injection of delivery peptide and siRNA, the siRNA-conjugate was added to modified peptide prior to injection and the entire amount was injected. The composition was soluble and nonaggregating in physiological conditions. Solutions were injected by infusion into the tail vein.
Mice were fasted for 4 h (16 h for rats) before serum collection by submandibular bleeding. For rats blood was collected from the jugular vein. Serum ApoB protein levels were determined by standard sandwich ELISA methods. Briefly, a polyclonal goat anti-mouse ApoB antibody and a rabbit anti-mouse ApoB antibody (Biodesign International) were used as capture and detection antibodies respectively. An HRP-conjugated goat anti-rabbit IgG antibody (Sigma) was applied afterwards to bind the ApoB/antibody complex. Absorbance of tetramethyl-benzidine (TMB, Sigma) colorimetric development was then measured by a Tecan Safire2 (Austria, Europe) microplate reader at 450 nm.
Melittin was reversibly modified with CDM-NAG as described above. The indicated amount of melittin was then co-injected with the 200 μg ApoB siRNA-cholesterol conjugate. Effect on ApoB levels were determined as described above.
Melittin was reversibly modified with CDM-NAG as described above. The indicated amount of melittin was then co-injected with 50 μg ApoB siRNA-cholesterol conjugate. Effect on ApoB levels were determined as described above.
Melittin was reversibly modified with CDM-NAG (5×) as described above. The indicated amount of melittin was then co-injected with the indicated amount of ApoB siRNA-cholesterol conjugate. Effect on ApoB levels were determined as described above.
Melittin was reversibly modified with the indicated amount of CDM-NAG as described above. 50 μg melittin was then co-injected with the 100 μg ApoB siRNA-cholesterol conjugate. Effect on ApoB levels were determined as described above.
Melittin peptides having the indicated sequence were reversibly modified with CDM-NAG (5×) as described above. The indicated amount of melittin was then co-injected with the indicated amount of ApoB siRNA-cholesterol conjugate. Effect on ApoB levels were determined as described above.
Melittin peptides containing the indicated PEG amino terminal modifications were synthesized as described above. The PEG amino terminal modified melittin peptides were then reversibly modified with 5×CDM-NAG as described above. The indicated amount of Melittin was then co-injected with the 100-200 μg ApoB siRNA-cholesterol conjugate. Effect on ApoB levels were determined as described above. Addition of PEG less than 5 kDa in size decreased toxicity of the melittin peptides.

Another experiment relates to Factor VII. The experiment can be described thus: Knockdown of plasma Factor VII activity in rats after co-injection of CDM-NAG masked melittin and cholesterol-Factor VII siRNA. The conditions noted are these: 5× CDM-NAG, 3 mg/kg cholesterol-Factor VII siRNA. The class given is in vivo. As to the method: as §1
Wistar Han rats, 175-200 g were obtained from Charles River (Wilmington, Mass.). Rats were housed at least 1 week prior to injection. Injection volume for rats was typically 1 ml.
Plasma samples from animals were prepared by collecting blood (9 volumes) (by submandibular bleeding for mice or from jugular vein for rats) into microcentrifuge tubes containing 0.109 mol/L sodium citrate anticoagulant (1 volume) following standard procedures. F7 activity in plasma is measured with a chromogenic method using a BIOPHEN VII kit (Hyphen BioMed/Aniara, Mason, Ohio) following manufacturer's recommendations. Absorbance of colorimetric development was measured using a Tecan Safire2 microplate reader at 405 nm.
The indicated melittin was reversibly modified with 5×CDM-NAG as described above. The indicated amount of melittin, in mg per kg animal weight, was then co-injected with the 3 mg/kg cholesterol— Factor VII siRNA. Effect on Factor VII levels were determined as described above.

The mark [1] stands for this setting: CDM-NAG (5×), 80 μg peptide per mouse, 100 μg siRNA per mouse.
The mark [2] stands for this setting: peptide 1 (mg per kg animal weight), relative to isotonic glucose injected animals.
The mark [3] stands for this setting: CDM-NAG (5×), amount in column 'siRNA' 400 μg.
Where [4] appears, read: CDM-NAG (5×), 50 μg peptide per mouse, 100 μg siRNA per mouse.
Setting [5] is: CDM-NAG (5×), 100 μg peptide per mouse, 100 μg siRNA per mouse.

As for “G12W (Seq ID 14): melittin peptide derivative (GIGAILKVLATWLPTLISWIKNKRKQ; melittin-like peptide derive from Apis florea)”, the percent knockdown with ApoB (setting [1]) is recorded as 51%.

Regarding “GIGAILKVLATGLPTLISWIKNKRKQ (listed as Apis florea) [Seq ID 1, Apis florea melittin]”, the “Factor VII knockdown” value came out at 30 in the experiment with Factor VII (setting [2]), 83 in the experiment with Factor VII (peptide 3 (mg per kg)), 90 in the experiment with Factor VII (peptide 10 (mg per kg)) and 95 in the experiment with Factor VII (peptide 20 (mg per kg)). Besides, the “% knockdown” value came out at 25% in the experiment with ApoB (5× CDM-NAG, 200 μg siRNA, 100 μg peptide, relative to isotonic glucose injected animals); 51% with ApoB (5× CDM-NAG, 200 μg siRNA, 200 μg peptide); 78% in the experiment with ApoB (5× CDM-NAG, 200 μg siRNA, 400 μg peptide); 87% with ApoB (5× CDM-NAG, 200 μg siRNA, 800 μg peptide); 94% in the experiment on ApoB (5× CDM-NAG, 200 μg siRNA, 1200 μg peptide); 0% in the experiment on ApoB (5× CDM-PEG, 200 μg siRNA, 800 μg peptide, relative to isotonic glucose injected animals). For the same substance, the percent knockdown was determined as 90% in the experiment on ApoB (CDM-NAG (5×), amount in column 'siRNA' 200 μg) and 80% in the experiment on ApoB (setting [3]).

For “Leu-Melittin (Seq ID 7) L form: G1L melittin peptide, L form amino acids (LIGAILKVLATGLPTLISWIKNKRKQ; melittin-like peptide derive from Apis florea)”, the “% knockdown” value in the experiment on ApoB (1× CDM-NAG, 100 μg siRNA, 50 μg peptide) is reported as 74%; in the experiment with ApoB (2× CDM-NAG, 100 μg siRNA, 50 μg peptide), 88%; in the experiment with ApoB (5× CDM-NAG, 50 μg siRNA, 25 μg peptide), 15%; with ApoB (5× CDM-NAG, 50 μg siRNA, 50 μg peptide), 70%; with ApoB (5× CDM-NAG, 50 μg siRNA, 100 μg peptide) it was 90%; in the experiment with ApoB (5× CDM-NAG, 50 μg siRNA, 200 μg peptide), 90%. The “% knockdown” value in the experiment on ApoB (5× CDM-NAG, 50 μg siRNA, 400 μg peptide) came out at 90%; with ApoB (5× CDM-NAG, 100 μg siRNA, 50 μg peptide) it was 82%. For the same substance, the percent knockdown in the experiment with ApoB (5× CDM-NAG, no PEG modification, 25 μg peptide, 100 μg siRNA) is given as 0%; in the experiment on ApoB (5× CDM-NAG, no PEG modification, 50 μg peptide, 100 μg siRNA), 72%; with ApoB (5× CDM-NAG, no PEG modification, 100 μg peptide, 100 μg siRNA) it was 94%.

With “Mel-Cys (Seq ID 62): melittin peptide derivative (GIGAILKVLATGLPTLISWIKNKRKQC; C-terminal Cys; melittin-like peptide derive from Apis florea)”, the percent knockdown with ApoB (CDM-NAG (5×), 400 μg peptide per mouse, 100 μg siRNA per mouse) was found to be 83%.

In turn, “Mel-NH2 (Seq ID 116): melittin peptide derivative (GIGAILKVLATGLPTLISWIKNKRKQ-NH2)” registered a percent knockdown in the experiment on ApoB (setting [4]) of 86%.

“N22T Mel-NH2 (Seq ID 15): melittin peptide derivative (GIGAILKVLATGLPTLISWIKTKRKQ-NH2)” displayed a percent knockdown in the experiment on ApoB (setting [4]) of 34%.

In turn, “PEG24-GKLK-Mel G1L (Seq ID 59): melittin peptide derivative ([PEG24′]GKLKLIGAILKVLATGLPTLISWIKNKRKQ)” returned a percent knockdown in the experiment on ApoB (setting [4]) of 85%.

“PEG(5k)-KLK-dMel G1Y (Seq ID 56): melittin peptide derivative ({PEG 5k}-KLK[dY][dI]G[dA][dI][dL][dK][dV][dL][dA][dT]G[dL][dP][dT][dL][dI][dS][dW][dI][dK][dN][dK][dR][dK][dQ])” registered a percent knockdown with ApoB (CDM-NAG (5×), 300 μg peptide per mouse, 100 μg siRNA per mouse) of 72%.

“QKRKNKIWSILTPLGTALVKLIAGIG-NH2 [Seq ID 96]” showed a percent knockdown with ApoB (CDM-NAG (5×), siRNA 20 mg/kg) of 70%.

In turn, “QQKKKKIWSILAPLGTTLVKLVAGIC-NH2 [Seq ID 93]” gave a percent knockdown in the experiment with ApoB (CDM-NAG (5×), siRNA 20 mg/kg) of 70%.

In the case of “QQRKRKIWSILAALGTTLVKLVAGIC-NH2 (also: retro-inverso, methoxy, position not given here) [Seq ID 95 Retroinverso Methoxy]”, the percent knockdown with ApoB (CDM-NAG (5×), amount in column 'siRNA' 30 mg/kg) is 39%.

With “QQRKRKIWSILAALGTTLVKLVAGIC-NH2 [Seq ID 95]”, in the experiment with ApoB (CDM-NAG (5×), siRNA 20 mg/kg), the percent knockdown was 91%.

In the experiment on ApoB (CDM-NAG (5×), 400 μg peptide per mouse, 200 μg siRNA per mouse), “QQRKRKIWSILAPLGTTLVKLVAGIC-(N-PDP-PE)-NH2 (not fully specified (some residues, C-terminus); also: D-amino acids, positions not given here) [PE = dioleolyl-phosphatidyl-ethanolamine]” returned a percent knockdown of 55%.

As to “QQRKRKIWSILAPLGTTLVKLVAGIC-NH2 [Seq ID 92]”, the percent knockdown with ApoB (setting [3]) was 85%; in the experiment with ApoB (CDM-NAG (5×), siRNA 20 mg/kg), 94%.

On to “T11A, T15A, S18A (Seq ID 40): melittin peptide derivative (GIGAILKVLACGLPALIAWIKNKRKQ; melittin-like peptide derive from Apis florea)”, for which, in the experiment on ApoB (setting [4]), the percent knockdown is 38%.

In turn, “T11G, T15G, S18G (Seq ID 39): melittin peptide derivative (GIGAILKVLACGLPGLIGWIKNKRKQ; melittin-like peptide derive from Apis florea)” had a percent knockdown in the experiment on ApoB (setting [4]) of 32%.

On to “YIGAILKVLATGLPTLISWIKNKRKQ (melittin-like peptide derive from Apis florea) [Seq ID 11]”, for which the “Factor VII knockdown” value in the experiment with Factor VII (setting [2]) came to 93; in the experiment with Factor VII (peptide 3 (mg per kg)) it was 97.

Regarding “dimethyl-dMel I2L, I5L, T11C, I17L, I20L dMel (Seq ID 46): melittin peptide derivative (dimethyl-GLGALLKVLACGLPTLLSWLKNKRKQ; not fully specified (some residues); also: D-amino acids, positions not given here)”, the percent knockdown with ApoB (setting [5]) is listed as 87%.

“dimethyl-dMel I2Nle, I5Nle, T11C, I17Nle, I20Nle dMel (Seq ID 47): melittin peptide derivative (G[Nle]GA[Nle]LKVLACGLPTL[Nle]SW[Nle]KNKRKQ; also: dimethyl, site not given here, D-amino acids, positions not given here)” came in with a percent knockdown with ApoB (setting [5]) of 78%.

“myristoyl-CKLK-Mel G1L (Seq ID 111): melittin peptide derivative (Myristoyl-CKLKLIGAILKVLATGLPTLISWIKNKRKQ)”: in the experiment with ApoB (setting [1]), the percent knockdown was determined as 96%.

The values above are taken from patent publication US9526796B2, “Peptide-based in vivo siRNA delivery system” (priority 2010, dated 2016).
